According to ChEMBL document CHEMBL1132691, “Structure-immunosuppressive activity relationships of new analogues of 15-deoxyspergualin. 2. Structural modifications of the spermidine moiety” (1999):

Assays:
[1] = tested on: Mus musculus; test: Tested in vivo against mouse graft-versus-host disease(GVHD) for survival (mean) after daily administration of 3 mg/kg (i.p.) using group of 8 mice/dose for 10 days.; format: functional; details: route intraperitoneal
[2] = tested on: Mus musculus; test: Tested in vivo against mouse graft-versus-host disease(GVHD) for survival (mean) after daily administration of 0.3 mg/kg (i.p.) using group of 8 mice/dose for 10 days.; format: functional; details: route intraperitoneal
[3] = tested on: Rattus norvegicus; test: The compound was tested in vivo against heart transplanted rat for survival (mean) after daily administration of 6 mg/kg(ip) for 10 days.; format: functional
[4] = tested on: Rattus norvegicus; test: The compound was tested in vivo against heart transplanted rat for survival (mean) after daily administration of 2.5 mg/kg(ip) for 10 days.; format: functional
[5] = tested on: Rattus norvegicus; test: The compound was tested in vivo against heart transplanted rat for survival (mean) after daily administration of 6 mg/kg(ip) for 10 days.

NC(N)=NCCCCCCNC(=O)COC(=O)NCCCCNCCC(N)C(F)(F)F (configuration not stated) gave a Mean survival [1] of 17 days and a Mean survival [2] of 16 days.
With CC(CCN)NCCCCNC(=O)CC(=O)NCCCCCCN=C(N)N (configuration not stated) the Mean survival [1] was 12 days and the Mean survival [2] was 11 days.
With NCCCCNC(=O)OCC(=O)NCCCCCCN=C(N)N the Mean survival [1] was 14 days and the Mean survival [2] was 14 days.
For CN(CCCN)CCCCNC(=O)CC(=O)NCCCCCCN=C(N)N, the Mean survival [1] was 14 days and the Mean survival [2] was 14 days.
With CCC(N)CCNCCCCNC(=O)OCC(=O)NCCCCCCN=C(N)N (configuration not stated) the Mean survival [1] was 21 days and the Mean survival [2] was 16 days.
CC(C)(N)CCNCCCCNC(=O)CC(=O)NCCCCCCN=C(N)N showed a Mean survival [1] of 15 days and a Mean survival [2] of 15 days.
Work on C[C@H](N)CCNCCCCNC(=O)CC(=O)NCCCCCCN=C(N)N yielded a Mean survival [1] of 17 days.
C[C@H](N)CCNCCCCNC(=O)OCC(=O)NCCCCCCN=C(N)N was tested, and the Mean survival [1] was 25 days, the Mean survival [2] was 16 days and the Mean survival [3] was 9 days.
Work on CC(CN)CNCCCCNC(=O)CC(=O)NCCCCCCN=C(N)N (configuration not stated) yielded a Mean survival [1] of 18 days and a Mean survival [2] of 18 days.
For CC(N)CCNCCCCNC(=O)OCC(=O)NCCCCCCN=C(N)N (configuration not stated), the Mean survival [1] was 57 days, the Mean survival [2] was 53 days and the Mean survival [4] was 56 days.
Molecule CC(N)CCNCCCCNC(=O)CC(=O)NCCCCCCN=C(N)N (configuration not stated) has a Mean survival [1] of 60 days, a Mean survival [2] of 17 days and a Mean survival [3] of 24 days.
With CC(CCCNCCCN)NC(=O)CC(=O)NCCCCCCN=C(N)N (configuration not stated) the Mean survival [1] was 21 days.
C[C@@H](N)CCNCCCCNC(=O)CC(=O)NCCCCCCN=C(N)N was tested, and the Mean survival [1] was 49 days, the Mean survival [2] was 26 days and the Mean survival [3] was 68 days.
In the case of CC(CCCNC(=O)CC(=O)NCCCCCCN=C(N)N)NCCCN (configuration not stated), the Mean survival [1] is reported as 14 days and the Mean survival [2] is reported as 11 days.
In the case of NC(N)=NCCCCCCNC(=O)COC(=O)NCCCCNCCC(N)c1ccccc1 (configuration not stated), the Mean survival [1] is reported as 15 days and the Mean survival [2] is reported as 15 days.
With NCCCNCCCCNC(=O)CC(=O)NCCCCCCN=C(N)N the Mean survival [1] was 52 days, the Mean survival [2] was 17 days and the Mean survival [3] was 9 days.
C[C@@H](N)CCNCCCCNC(=O)OCC(=O)NCCCCCCNC(=N)N [ANISPERIMUS] was tested, and the Mean survival [1] was 60 days, the Mean survival [2] was 60 days and the Mean survival [4] was 80 days.
For N=C(N)NCCCCCCC(=O)NC(O)C(=O)NCCCCNCCCN (configuration not stated) [GUSPERIMUS], the Mean survival [5] was 38 days.
Molecule N=C(N)NCCCCCCNC(=O)COC(=O)NCCCCNCCCN [TRESPERIMUS] has a Mean survival [1] of 58 days, a Mean survival [2] of 15 days and a Mean survival [4] of 16 days.
